Patent publication US20250129047A1, “ISOQUINOLINE DERIVATIVES AS MUTANT EGFR MODULATORS AND USES THEREOF” (NEWAVE PHARMACEUTICAL INC., priority 2021, published 2025)

How the values were obtained:
Details in all cases: apparent IC50; 1.0 mM ATP or ATP Km; FL-Peptide 22 substrate; 25° C.
[1] = molecular target: T1, EGFR L858R (Homo sapiens, UniProt P00533, L858R); assay: Biochemical EGFR inhibition assay (Caliper mobility shift), EGFR L858R
T1 construct: purchased SignalChem E10-122BG
Procedure: (§1) Inhibitory effects of the compounds of the disclosure were measured in biochemical assays that measure the phosphorylation activity of EGFR enzyme phosphorylates 2.5 micromolar 5-FAM-EEPLYWSFPAKKK-CONFF peptide substrate (FL-Peptide 22, PerkinElmer, 760366) in the presence of adenosine-5′-triphosphate (ATP) and varying concentrations of the test compound in 100 mM 2-[4-(2-hydroxyethyl)piperazin-1-yl]ethanesulfonic acid (HEPES), pH 7.5, 10 mM MgCE. 0.015% Brij-35, 1 mM dithiothreitol (DTT), 1.0% dimehylsulfoxide (DMSO). Assays were performed at 1.0 mM ATP or at ATP Km of the EGFR enzymes. Reactions proceeded until between 10% to 20% total peptides were phosphorylated at room temperature (25° C.) and were terminated with 35 mM 2,2′,2″,2″-(ethane-1,2-diyldinitrilo)tetraacetic acid (EDTA). Product was detected using the Caliper mobility shift detection method where the phosphorylated peptide (product) and substrate were electrophoretically separated and measured. Percent activity was plotted against log concentration of compound and points to generate an apparent IC50. […]

[2] = molecular target: T2, EGFR (d746-750) T790M C797S (Homo sapiens, UniProt P00533, C797S/DEL746-750/T790M); assay: Biochemical EGFR inhibition assay (Caliper mobility shift), EGFR d746-750 T790M C797S
T2 construct: purchased SignalChem E10-122UG
T2 sequence (P00533 with tags, fused parts or gaps DEL746-750/T790M/C797S limits assumed): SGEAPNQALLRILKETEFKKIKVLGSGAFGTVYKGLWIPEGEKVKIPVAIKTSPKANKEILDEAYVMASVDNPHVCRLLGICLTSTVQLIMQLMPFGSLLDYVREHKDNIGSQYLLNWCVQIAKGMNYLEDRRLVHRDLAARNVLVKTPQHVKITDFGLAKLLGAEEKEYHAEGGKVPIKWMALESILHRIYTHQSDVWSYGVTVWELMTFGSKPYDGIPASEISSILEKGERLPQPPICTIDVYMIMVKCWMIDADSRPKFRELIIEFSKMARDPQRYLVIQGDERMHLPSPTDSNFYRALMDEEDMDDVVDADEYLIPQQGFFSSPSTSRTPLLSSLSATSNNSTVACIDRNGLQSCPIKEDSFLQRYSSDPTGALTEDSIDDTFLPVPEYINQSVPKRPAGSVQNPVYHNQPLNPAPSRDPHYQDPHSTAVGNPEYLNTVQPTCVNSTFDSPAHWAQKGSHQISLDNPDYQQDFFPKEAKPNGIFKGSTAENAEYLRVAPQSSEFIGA
Procedure: as §1

[3] = molecular target: EGFR L858R T790M (Homo sapiens, UniProt P00533, L858R/T790M); assay: Biochemical EGFR inhibition assay (Caliper mobility shift), EGFR L858R T790M
Sequence of EGFR L858R T790M (P00533 25-1210 T790M/L858R): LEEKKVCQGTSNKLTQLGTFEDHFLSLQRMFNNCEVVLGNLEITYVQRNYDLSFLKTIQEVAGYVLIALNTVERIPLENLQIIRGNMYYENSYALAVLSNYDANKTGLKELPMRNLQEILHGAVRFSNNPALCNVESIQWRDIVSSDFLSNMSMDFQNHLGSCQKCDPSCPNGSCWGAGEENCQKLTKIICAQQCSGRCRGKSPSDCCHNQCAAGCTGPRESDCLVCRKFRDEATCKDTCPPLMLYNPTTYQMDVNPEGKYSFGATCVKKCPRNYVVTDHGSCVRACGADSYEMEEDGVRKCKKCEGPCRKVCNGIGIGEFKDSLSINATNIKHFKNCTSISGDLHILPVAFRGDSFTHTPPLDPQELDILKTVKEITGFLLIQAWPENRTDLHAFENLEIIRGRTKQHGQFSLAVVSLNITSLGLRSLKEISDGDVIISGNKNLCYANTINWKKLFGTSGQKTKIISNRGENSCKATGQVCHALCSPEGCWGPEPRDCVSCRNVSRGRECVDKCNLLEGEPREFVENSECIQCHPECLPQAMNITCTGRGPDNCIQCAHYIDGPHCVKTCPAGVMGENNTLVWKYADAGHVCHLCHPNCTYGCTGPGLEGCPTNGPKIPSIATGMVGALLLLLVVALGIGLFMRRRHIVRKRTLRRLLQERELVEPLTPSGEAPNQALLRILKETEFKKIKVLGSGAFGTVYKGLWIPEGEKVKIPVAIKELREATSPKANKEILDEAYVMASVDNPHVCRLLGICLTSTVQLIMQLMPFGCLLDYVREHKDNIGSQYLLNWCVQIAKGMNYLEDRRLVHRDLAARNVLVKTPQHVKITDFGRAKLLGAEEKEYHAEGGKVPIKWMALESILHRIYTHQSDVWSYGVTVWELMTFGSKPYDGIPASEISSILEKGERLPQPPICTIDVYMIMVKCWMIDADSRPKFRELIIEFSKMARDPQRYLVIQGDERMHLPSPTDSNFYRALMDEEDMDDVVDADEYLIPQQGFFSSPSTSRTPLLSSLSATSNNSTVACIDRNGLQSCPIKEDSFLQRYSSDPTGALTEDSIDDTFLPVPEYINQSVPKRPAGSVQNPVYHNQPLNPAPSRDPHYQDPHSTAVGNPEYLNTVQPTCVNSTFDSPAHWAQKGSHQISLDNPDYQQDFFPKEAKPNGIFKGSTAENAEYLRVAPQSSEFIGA
Procedure: as §1

[4] = molecular target: EGFR d746-750 T790M (Homo sapiens, UniProt P00533, DEL746-750/T790M); assay: Biochemical EGFR inhibition assay (Caliper mobility shift), EGFR d746-750 T790M
Sequence of EGFR d746-750 T790M (P00533 with tags, fused parts or gaps DEL746-750/T790M limits assumed): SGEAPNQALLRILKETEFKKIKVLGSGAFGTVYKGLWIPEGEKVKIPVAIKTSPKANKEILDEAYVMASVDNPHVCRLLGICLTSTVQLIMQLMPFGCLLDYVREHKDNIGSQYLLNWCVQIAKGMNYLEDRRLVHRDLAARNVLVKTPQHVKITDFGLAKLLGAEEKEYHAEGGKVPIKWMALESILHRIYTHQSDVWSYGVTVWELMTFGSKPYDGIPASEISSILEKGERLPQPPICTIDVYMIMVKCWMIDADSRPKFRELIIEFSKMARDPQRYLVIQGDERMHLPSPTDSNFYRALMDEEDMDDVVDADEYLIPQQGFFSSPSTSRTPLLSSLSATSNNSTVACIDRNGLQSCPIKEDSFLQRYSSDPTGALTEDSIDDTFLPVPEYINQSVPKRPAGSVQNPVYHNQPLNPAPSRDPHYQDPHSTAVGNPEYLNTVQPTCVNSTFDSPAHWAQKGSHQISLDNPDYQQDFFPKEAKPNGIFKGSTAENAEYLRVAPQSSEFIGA
Procedure: as §1

[5] = molecular target: T3, EGFR (L858R T790M C797S) (Homo sapiens, UniProt P00533, C797S/L858R/T790M); assay: Biochemical EGFR inhibition assay (Caliper mobility shift), EGFR L858R T790M C797S
T3 construct: purchased SignalChem E10-122VG
T3 sequence (P00533 25-1210 T790M/C797S/L858R): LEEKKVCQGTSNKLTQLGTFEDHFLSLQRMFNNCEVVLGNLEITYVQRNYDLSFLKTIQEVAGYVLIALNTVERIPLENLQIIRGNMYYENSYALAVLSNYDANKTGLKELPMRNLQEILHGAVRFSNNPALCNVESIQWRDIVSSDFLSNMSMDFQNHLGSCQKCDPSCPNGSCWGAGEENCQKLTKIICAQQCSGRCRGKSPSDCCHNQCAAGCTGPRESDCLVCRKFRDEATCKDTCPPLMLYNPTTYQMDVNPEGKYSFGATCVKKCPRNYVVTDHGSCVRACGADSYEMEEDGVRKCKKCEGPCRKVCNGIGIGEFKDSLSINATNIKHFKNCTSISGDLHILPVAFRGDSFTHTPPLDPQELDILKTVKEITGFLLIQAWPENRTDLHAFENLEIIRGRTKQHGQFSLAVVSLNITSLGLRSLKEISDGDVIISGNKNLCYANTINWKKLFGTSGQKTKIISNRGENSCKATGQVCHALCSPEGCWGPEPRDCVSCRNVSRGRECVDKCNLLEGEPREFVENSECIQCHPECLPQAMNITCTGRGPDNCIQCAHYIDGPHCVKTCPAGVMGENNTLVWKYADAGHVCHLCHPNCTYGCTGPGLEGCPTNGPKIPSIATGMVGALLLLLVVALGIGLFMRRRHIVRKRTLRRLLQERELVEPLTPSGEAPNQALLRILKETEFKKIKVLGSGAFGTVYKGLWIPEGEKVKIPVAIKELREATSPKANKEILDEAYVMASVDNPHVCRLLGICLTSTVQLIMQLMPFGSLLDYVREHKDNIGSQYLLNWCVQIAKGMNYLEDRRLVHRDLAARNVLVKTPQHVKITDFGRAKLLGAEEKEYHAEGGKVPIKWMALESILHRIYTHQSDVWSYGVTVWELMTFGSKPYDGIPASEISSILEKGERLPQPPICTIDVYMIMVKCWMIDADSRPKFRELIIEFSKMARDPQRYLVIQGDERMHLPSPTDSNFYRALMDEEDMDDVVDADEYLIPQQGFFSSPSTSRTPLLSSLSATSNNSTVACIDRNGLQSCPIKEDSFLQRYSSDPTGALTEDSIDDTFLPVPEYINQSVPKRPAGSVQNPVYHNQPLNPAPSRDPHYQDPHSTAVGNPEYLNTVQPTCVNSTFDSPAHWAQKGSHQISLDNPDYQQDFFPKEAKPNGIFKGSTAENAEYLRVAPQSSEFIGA
Procedure: as §1

T1 sequence (P00533 25-1210 L858R): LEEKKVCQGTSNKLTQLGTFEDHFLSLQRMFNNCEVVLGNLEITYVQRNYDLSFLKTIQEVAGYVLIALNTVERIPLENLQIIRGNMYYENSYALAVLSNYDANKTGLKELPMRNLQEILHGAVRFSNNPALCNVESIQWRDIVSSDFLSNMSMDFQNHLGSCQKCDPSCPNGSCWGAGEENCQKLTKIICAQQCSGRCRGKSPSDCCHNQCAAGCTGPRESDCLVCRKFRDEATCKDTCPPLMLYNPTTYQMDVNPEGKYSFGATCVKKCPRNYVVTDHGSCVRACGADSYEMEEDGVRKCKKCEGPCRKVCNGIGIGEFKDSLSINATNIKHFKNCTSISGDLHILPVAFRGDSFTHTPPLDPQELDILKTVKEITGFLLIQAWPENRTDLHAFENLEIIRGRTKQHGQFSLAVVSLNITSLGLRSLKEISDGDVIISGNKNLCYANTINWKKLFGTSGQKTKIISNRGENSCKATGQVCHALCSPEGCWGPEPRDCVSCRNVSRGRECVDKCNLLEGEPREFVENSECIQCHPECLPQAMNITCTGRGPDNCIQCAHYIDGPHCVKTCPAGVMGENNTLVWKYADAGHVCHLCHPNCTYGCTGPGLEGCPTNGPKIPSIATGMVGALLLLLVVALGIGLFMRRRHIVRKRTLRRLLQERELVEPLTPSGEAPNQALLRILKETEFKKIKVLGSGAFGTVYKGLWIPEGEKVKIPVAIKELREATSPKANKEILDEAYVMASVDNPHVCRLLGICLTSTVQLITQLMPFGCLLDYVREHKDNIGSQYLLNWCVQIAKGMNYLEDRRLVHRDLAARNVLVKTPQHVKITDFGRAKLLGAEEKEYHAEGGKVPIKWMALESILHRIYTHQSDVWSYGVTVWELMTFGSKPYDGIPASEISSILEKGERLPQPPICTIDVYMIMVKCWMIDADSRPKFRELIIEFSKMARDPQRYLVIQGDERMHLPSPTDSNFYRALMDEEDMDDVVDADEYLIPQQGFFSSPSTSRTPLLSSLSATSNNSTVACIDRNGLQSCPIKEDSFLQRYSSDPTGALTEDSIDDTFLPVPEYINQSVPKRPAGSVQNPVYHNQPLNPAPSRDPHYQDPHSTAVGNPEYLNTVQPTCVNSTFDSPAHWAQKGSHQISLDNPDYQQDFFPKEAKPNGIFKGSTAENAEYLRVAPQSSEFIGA

Row | Compound | IC50 [1] | IC50 [2] | IC50 [3] | IC50 [4] | IC50 [5]
1 | C=CC(=O)N1CCC[C@H]1c1ccc(N2C[C@H](CS(C)(=O)=O)[C@H]2C)c2cnc(Nc3ccnc(N4CC[C@@H](OC)[C@@H](F)C4)n3)cc12 [Example 2, 1-[(2S)-2-[3-({2-[(3S,4R)-3-fluoro-4-methoxypiperidin-1-yl]pyrimidin-4-yl}amino)-8-[(2R,3S)-3-(methanesulfonylmethyl)-2-methylazetidin-1-yl]isoquinolin-5-yl]pyrrolidin-1-yl]prop-2-en-1-one] | 100 nM | 2.3 nM |  |  | 
2 | C=CC(=O)N1CCC[C@@H]1c1ccc(N2C[C@H](CS(C)(=O)=O)[C@H]2C)c2cnc(Nc3ccnc(N4CC[C@@H](OC)[C@@H](F)C4)n3)cc12 [Example 3, 1-[(2R)-2-[3-({2-[(3S,4R)-3-fluoro-4-methoxypiperidin-1-yl]pyrimidin-4-yl}amino)-8-[(2R,3S)-3-(methanesulfonylmethyl)-2-methylazetidin-1-yl]isoquinolin-5-yl]pyrrolidin-1-yl]prop-2-en-1-one] | 1.5 nM | 0.15 nM | 0.29 nM | 0.88 nM | 0.69 nM
